The term IC50 denotes the concentration needed to halve the response being measured.

Data set [1] concerns the target T1, IKCa (Homo sapiens, UniProt O15554).
T1 construct: expressed in transfected cells; host or cells: HEK293
Put plainly: Whole-cell K+ currents in HEK293 cells expressing recombinant IKCa. The format is cell-based. Particulars: 10 μM, FIG. 9B. As to the method: FIG. 9. Selectivity effect of JPH1701 on SKCa subtype and on IKCa channels. FIG. 9A) Example of whole-cell K^+ currents recorded in HEK293 cells expressing recombinants SK1, SK2, SK3 and IKCa channels before and after application of 10 μM JPH1701 (upper graphs: SK1 and SK2 respectively, bottom graphs: SK3 and IKCa respectively). Currents were generated by ramp protocol from −100 mV to +60 mV in 500 ms from a constant holding of 0 mV and with a pCa 6. FIG. 9B) Histograms showing the effect of 10 μM JPH1701 on SKCa (SK1, SK2, SK3) and IKCa current amplitudes recorded at 0 mV. […] For each channel (SK1, SK2, SK3 and IKCa) the left column (pale grey) represents the control result and the right column (dark grey) represents the result after JPH1701 application.
The selectivity of JPH1701 toward the others members of the SKCa/IKCa channels was tested. […] The experimental protocol was similar to the one used in FIG. 8. JPH1701 was tested for membrane potential from +60 mV to −100 mV on 500 msec.

Data set [2] addresses SK3/KCa2.3 channel (Homo sapiens, UniProt Q9UGI6). In words: Whole-cell patch clamp, apamin-sensitive current in MDA-MB-435s. The format is cell-based. Details: effect of JPH1701 on the SK3 activity in MDA-MB-435s cells using patch clamp technique; endogenous in cells; host or cells: MDA-MB-435s wild type. As to the method: FIG. 7: Effects of a 24 hours application of JPH1701 at 1 μM on whole cell current in MDA-MB-435s Wild Type (WT). FIG. 7A) Illustrations of currents recorded on MDA-MD-435s. On the top, current were recorded on MDA-MB-435s in control condition. At the bottom, current were representative of a cell which was treated with JPH1701 1 μM during 24 hours. FIG. 7B) Effects of JPH1701 on apamin-sensitive currents. Cells were incubated with JHP1701 at 1 μM during 24 hours then currents were measured in absence or with apamin, a specific blocker of the SK3/KCa2.3 channel. Histograms show the amplitude of currents inhibited by apamin. After JPH1701 treatment apamin-sensitive current were abolished. […]
Briefly, experiments were conducted using Axopatch 200B patch-clamp amplifier (Axon Instrument) and data, digitized with 1322-A Digidata converter (Axon Instrument), were stored on a computer using Clampex of pClamp 9.2 software (Axon Instru-ment). The patch-clamp data was analyzed using both Clampfit 9.2 and Origin 7.0 software (Microcal Inc., Northampton, Mass., USA).
The pipette solution for the whole-cell recordings contained (in mM): K-glutamate 125, KCl 20, MgCl2 1, Mg-ATP 1, HEPES 10, and pH was adjusted to 7.2 with KOH and various concentrations of CaCl2 and EGTA were added to obtain calculated pCa=7 (0.37 mM CaCl2 and 10 mM EGTA) or pCa=6.4 (0.7 mM CaCl2 and 1 mM EGTA). […]
For orientation: The patch-clamp technique gives a direct electrical read-out from membranes.

Data set [3] concerns LPA (lysophosphatidic acid) receptor. In words: LPA receptor binding. On the procedure:
Indeed, the molecular structure of JPH1701 resembles to LPA and PAF. This similarity between the molecular structures prompted us to analyse whether some of the JPH1701's effects were mediated through its binding to the PAF receptor or to the LPA (lysophosphatidic acid) receptor. […] The same results were obtained with LPA receptor (105.3±8.0% and 87.2±4.7% of LPA binding respectively at 0.3 and 2 μM JPH1701). It has been also reported that edelfosine inhibits enzyme activity like protein kinase C or phospholipase C that may explain some of its cytostatic and cytotoxic effects.

Data set [4] concerns MDA-MB-435s shSK3. Put plainly: Transwell motility of cells not expressing SK3. The format is cell-based, human. The conditions noted are these: 10 nM to 300 nM; non-specific effect at 1 μM, FIG. 6F. As to the method: FIG. 6: JPH1701 (or Ohmline) activity on cell motility on cancerous MDA-MB-435s cells and on non cancerous MCF-10A cells. The motility was tested by transwell assay. Additionally, viability tests were performed using MTT assays. FIG. 6A-B) JPH1701 (the concentrations of JPH1701, for the FIG. 6A, are 0 (control condition), 10 nM, 100 nM, 300 nM and 1 μM) reduces motility (FIG. 6A) of MDA-MB-435s wild type (WT) cells from 10 nM without affecting viability (FIG. 6B) except at 10 μM. FIG. 6C-D) MCF-10A motility (FIG. 6C) and viability (FIG. 6D) are not affected by JPH1701 (the concentrations of JPH1701, for the FIG. 6C, are 0 (control condition), 10 nM, 100 nM, 300 nM and 1 μM). FIG. 6E-F) Effect on SK3 dependent motility.
MDA-MB-435s and HEK293 cells were transduced with lentiviral vector at multiplicities of infection (MOI) of 1 to 3 in the presence of polybrene (4 μg/ml, Sigma). The transduction rate for MDA-MB-435s determined by counting GFP cells was close to 90%. In order to selection one clone of HEK293-SK3/KCa2.3 limit dilution were realized and each clone was tested in patch clamp with apamin and edelfosine and by western blotting in order to control expression of SK3/KCa2.3 channel.
At least three independent experiments were each performed in triplicate.

Data set [5] concerns MDA-MB-435s. Put plainly: Cytotoxicity / cell viability (MTT, tetrazolium salt reduction).

Where only a bound is given, the exact number is not on record here.

Sequence of SK3/KCa2.3 channel (Q9UGI6 whole entry): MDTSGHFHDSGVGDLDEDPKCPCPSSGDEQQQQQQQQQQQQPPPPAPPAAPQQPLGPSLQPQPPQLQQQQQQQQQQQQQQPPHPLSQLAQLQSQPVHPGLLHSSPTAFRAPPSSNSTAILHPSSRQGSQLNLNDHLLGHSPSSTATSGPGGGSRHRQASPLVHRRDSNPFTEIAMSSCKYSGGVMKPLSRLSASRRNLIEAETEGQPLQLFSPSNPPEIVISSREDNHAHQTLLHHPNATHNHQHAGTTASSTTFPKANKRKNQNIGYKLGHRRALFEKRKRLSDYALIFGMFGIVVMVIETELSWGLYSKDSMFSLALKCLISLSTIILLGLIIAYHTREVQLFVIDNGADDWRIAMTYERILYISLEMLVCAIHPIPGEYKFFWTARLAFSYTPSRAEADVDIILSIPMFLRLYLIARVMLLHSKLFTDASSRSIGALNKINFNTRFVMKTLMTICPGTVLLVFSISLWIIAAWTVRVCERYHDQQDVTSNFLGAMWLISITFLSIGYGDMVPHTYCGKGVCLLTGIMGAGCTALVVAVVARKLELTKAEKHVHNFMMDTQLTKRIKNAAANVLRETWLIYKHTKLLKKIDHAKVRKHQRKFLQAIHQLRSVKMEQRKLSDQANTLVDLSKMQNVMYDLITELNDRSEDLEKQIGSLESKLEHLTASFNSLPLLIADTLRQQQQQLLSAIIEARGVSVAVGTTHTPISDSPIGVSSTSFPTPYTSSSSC
T1 sequence (O15554 whole entry): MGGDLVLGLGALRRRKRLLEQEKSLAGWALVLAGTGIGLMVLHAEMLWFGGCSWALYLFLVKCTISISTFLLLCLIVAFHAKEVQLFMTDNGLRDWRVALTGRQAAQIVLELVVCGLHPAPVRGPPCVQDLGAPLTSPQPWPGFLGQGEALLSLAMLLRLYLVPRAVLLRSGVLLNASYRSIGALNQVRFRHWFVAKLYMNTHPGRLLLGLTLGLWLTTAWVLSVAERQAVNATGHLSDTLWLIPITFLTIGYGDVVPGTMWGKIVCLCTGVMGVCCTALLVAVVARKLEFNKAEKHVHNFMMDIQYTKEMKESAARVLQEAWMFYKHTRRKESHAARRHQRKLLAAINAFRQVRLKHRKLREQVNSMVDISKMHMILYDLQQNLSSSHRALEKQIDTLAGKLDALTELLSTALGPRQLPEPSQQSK

Turning to “hexadecyloxy-2-O-methyl-sn-glycerol-lactose [JPH1701]”, the “Effect on IKCa currents” value in data set [1] was “inactive”. The “Apamin-sensitive current after treatment” value in data set [2] (1 μM for 24 h, FIG. 7B) was “totally abolished”. The “Apamin-sensitive current in MDA-MB-435s” value in data set [2] (wild-type cells, residual current abolished by apamin) was 0.071 ± 0.215 pA/pF. For the same substance, the results for the “% of LPA binding” value in data set [3] (0.3 μM) and in data set [3] (2 μM) were 105.3±8.0% and 87.2±4.7%, respectively. In addition, the “Effect on migration ability of cells not expressing SK3” value in data set [4] is reported as “does not affect”. In addition, the Toxicity entry in data set [5] (Table 2, viability of MDA-MB-435s) is recorded as “No at 10 μM”. The “Effect on cell viability” value in data set [5] (at 10 nM to 1 μM, FIG. 6B) was “no effect on cell viability”. The “Effect on MDA-MB-435s proliferation” value in data set [5] (in vitro) was “no effect”. The IC50 in data set [5] (read-out: Cytotoxicity IC50, Table 1) was more than 10 µM.

These data come from patent US9161944B2, “Method for preventing cancer metastasis” (INSERM (INSTITUT NATIONAL DE LA SANTE ET DE LA SANTE ET DE …, priority 2010, dated 2015).
